Experimental data: US8580794B2 (AbbVie Inc., priority 2009, dated 2013)

system: RS4;11 cells; experiment: RS4;11 Cell Viability Assay (CellTiter Glo); assay type: cell-based; conditions: Homo sapiens, RS4-11, 48 h, 50,000 cells per well, 10% human serum;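 also: RS4,11 acute lymphoblastic leukemia cells, viability as percent of untreated control cells, EC50 for loss of viable cells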
Method: The acute lymphoblastic leukemia (ALL) cell line RS4;11 was used as the primary human cell line to assess the cellular activity of Bcl-2 selective agents in vitro and their efficacy in vivo.
Cell cytotoxicity EC50 values were assessed using CellTiter Glo (Promega) according to the manufacturer's recommendations. The EC50 values were determined as a percentage of viable cells following treatment compared to the untreated control cells.

| Compound | EC50 |
| --- | --- |
| CC1(C)CCC(CN2CCN(c3ccc(C(=O)NS(=O)(=O)c4ccc(OC[C@H]5CC[C@H](O)CC5)c([N+](=O)[O-])c4)c(Oc4cnc5[nH]ccc5c4)c3)CC2)=C(c2ccc(Cl)cc2)C1 [Example 196, Trans-4-(4-{[2-(4-chlorophenyl)-4,4-dimethylcyclohex-1-en-1-yl]methyl}piperazin-1-yl)-N-({4-[(4-hydroxycyclohexyl)methoxy]-3-nitrophenyl}sulfonyl)-2-(1H-pyrrolo[2,3-b]pyridin-5-yloxy)benzamide] | 1.72 nM |
| CC1(C)CCC(CN2CCN(c3ccc(C(=O)NS(=O)(=O)c4ccc(NCC5CCC(C)(O)CC5)c([N+](=O)[O-])c4)c(Oc4cnc5[nH]ccc5c4)c3)CC2)=C(c2ccc(Cl)cc2)C1 (stereo not drawn) [Example 337, 4-(4-{[2-(4-chlorophenyl)-4,4-dimethylcyclohex-1-en-1-yl]methyl}piperazin-1-yl)-N-[(4-{[(trans-4-hydroxy-4-methylcyclohexyl)methyl]amino}-3-nitrophenyl)sulfonyl]-2-(1H-pyrrolo[2,3-b]pyridin-5-yloxy)benzamide] | 1.76 nM |

biological target: GST-Bc1-2 (Homo sapiens, UniProt P10415); experiment: Time Resolved-Fluorescence Resonance Energy Transfer (TR-FRET) Bcl-2 binding assay with F-Bak peptide probe; conditions: GST-Bcl-2 1 nM, F-Bak probe 100 nM, Tb-anti-GST 1 nM; '<' = below limit of detection; read-out: TR-FRET Bcl-2 Binding Ki
Sequence (P10415 whole entry): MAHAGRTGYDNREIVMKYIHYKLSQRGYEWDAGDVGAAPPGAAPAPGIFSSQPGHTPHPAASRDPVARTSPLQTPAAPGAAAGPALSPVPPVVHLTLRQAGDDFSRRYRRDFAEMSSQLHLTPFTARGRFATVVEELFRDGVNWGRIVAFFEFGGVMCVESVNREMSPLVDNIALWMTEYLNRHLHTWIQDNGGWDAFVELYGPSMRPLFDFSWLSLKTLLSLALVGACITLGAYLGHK

| Compound | Ki |
| --- | --- |
| CC1(C)CCC(CN2CCN(c3ccc(C(=O)NS(=O)(=O)c4ccc(NC5CCC(NC6CC6(F)F)CC5)c([N+](=O)[O-])c4)c(Oc4cnc5[nH]ccc5c4)c3)CC2)=C(c2ccc(Cl)cc2)C1 (stereo not drawn) [Example 349, 4-(4-{[2-(4-chlorophenyl)-4,4-dimethylcyclohex-1-en-1-yl]methyl}piperazin-1-yl)-N-{[4-({4-[(2,2-difluorocyclopropyl)amino]cyclohexyl}amino)-3-nitrophenyl]sulfonyl}-2-(1H-pyrrolo[2,3-b]pyridin-5-yloxy)benzamide] | 0.023 nM |
| CC1(C)CCC(CN2CCN(c3ccc(C(=O)NS(=O)(=O)c4ccc(OCC5CCC6(CC5)COC6)c([N+](=O)[O-])c4)c(Oc4cnc5[nH]ccc5c4)c3)CC2)=C(c2ccc(Cl)cc2)C1 [Example 351, 4-(4-{[2-(4-chlorophenyl)-4,4-dimethylcyclohex-1-en-1-yl]methyl}piperazin-1-yl)-N-{[3-nitro-4-(2-oxaspiro[3.5]non-7-ylmethoxy)phenyl]sulfonyl}-2-(1H-pyrrolo[2,3-b]pyridin-5-yloxy)benzamide] | < 0.01 nM |
| O=C(NS(=O)(=O)c1ccc(NCC2CCOCC2)c([N+](=O)[O-])c1)c1ccc(N2CCN(CC3=C(c4ccc(Cl)cc4)CCC(CF)(CF)C3)CC2)cc1Oc1cnc2[nH]ccc2c1 [Example 353, 4-(4-{[2-(4-chlorophenyl)-5,5-bis(fluoromethyl)cyclohex-1-en-1-yl]methyl}piperazin-1-yl)-N-({3-nitro-4-[(tetrahydro-2H-pyran-4-ylmethyl)amino]phenyl}sulfonyl)-2-(1H-pyrrolo[2,3-b]pyridin-5-yloxy)benzamide] | < 0.01 nM |
| CC1(C)CCC(CN2CCN(c3ccc(C(=O)NS(=O)(=O)c4ccc(OCC5CN(C6CC6)CCO5)c([N+](=O)[O-])c4)c(Oc4cnc5[nH]ccc5c4)c3)CC2)=C(c2ccc(Cl)cc2)C1 (stereo not drawn) [Example 354, 4-(4-{[2-(4-chlorophenyl)-4,4-dimethylcyclohex-1-en-1-yl]methyl}piperazin-1-yl)-N-({4-[(4-cyclopropylmorpholin-2-yl)methoxy]-3-nitrophenyl}sulfonyl)-2-(1H-pyrrolo[2,3-b]pyridin-5-yloxy)benzamide] | 0.01 nM |
| CC1(C)CCC(CN2CCN(c3ccc(C(=O)NS(=O)(=O)c4ccc(OCC5(F)CCN(C6COC6)CC5)c(C#N)c4)c(Oc4cnc5[nH]ccc5c4)c3)CC2)=C(c2ccc(Cl)cc2)C1 [Example 357, 4-(4-{[2-(4-chlorophenyl)-4,4-dimethylcyclohex-1-en-1-yl]methyl}piperazin-1-yl)-N-[(3-cyano-4-{[4-fluoro-1-(oxetan-3-yl)piperidin-4-yl]methoxy}phenyl)sulfonyl]-2-(1H-pyrrolo[2,3-b]pyridin-5-yloxy)benzamide] | < 0.01 nM |
| COCC1(C)CCC(c2ccc(Cl)cc2)=C(CN2CCN(c3ccc(C(=O)NS(=O)(=O)c4ccc(NCC5CCOCC5)c([N+](=O)[O-])c4)c(Oc4cnc5[nH]ccc5c4)c3)CC2)C1 (stereo not drawn) [Example 360, 4-(4-{[2-(4-chlorophenyl)-5-(methoxymethyl)-5-methylcyclohex-1-en-1-yl]methyl}piperazin-1-yl)-N-({3-nitro-4-[(tetrahydro-2H-pyran-4-ylmethyl)amino]phenyl}sulfonyl)-2-(1H-pyrrolo[2,3-b]pyridin-5-yloxy)benzamide] | < 0.01 nM |
| CC1(C)CCC(CN2CCN(c3ccc(C(=O)NS(=O)(=O)c4ccc(NC[C@H]5CN(C6COC6)CCO5)c([N+](=O)[O-])c4)c(Oc4cnc5[nH]ccc5c4)c3)CC2)=C(c2ccc(Cl)cc2)C1 [Example 361, 4-(4-{[2-(4-chlorophenyl)-4,4-dimethylcyclohex-1-en-1-yl]methyl}piperazin-1-yl)-N-{[3-nitro-4-({[(2S)-4-(oxetan-3-yl)morpholin-2-yl]methyl}amino)phenyl]sulfonyl}-2-(1H-pyrrolo[2,3-b]pyridin-5-yloxy)benzamide] | < 0.01 nM |
| CC1(C)CCC(CN2CCN(c3ccc(C(=O)NS(=O)(=O)c4ccc(OCC5(F)CCC(N(CCC#N)C6CC6)CC5)c([N+](=O)[O-])c4)c(Oc4cnc5[nH]ccc5c4)c3)CC2)=C(c2ccc(Cl)cc2)C1 (stereo not drawn) [Example 363, 4-(4-{[2-(4-chlorophenyl)-4,4-dimethylcyclohex-1-en-1-yl]methyl}piperazin-1-yl)-N-{[4-({4-[(2-cyanoethyl)(cyclopropyl)amino]-1-fluorocyclohexyl}methoxy)-3-nitrophenyl]sulfonyl}-2-(1H-pyrrolo[2,3-b]pyridin-5-yloxy)benzamide] | 0.017 nM |
| CC1(C)CCC(CN2CCN(c3ccc(C(=O)NS(=O)(=O)c4cnc(NCC5CCOCC5)c([N+](=O)[O-])c4)c(Oc4cnc5[nH]ccc5c4)c3)CC2)=C(c2ccc(Cl)cc2)C1 [Example 364, 4-(4-{[2-(4-chlorophenyl)-4,4-dimethylcyclohex-1-en-1-yl]methyl}piperazin-1-yl)-N-({5-nitro-6-[(tetrahydro-2H-pyran-4-ylmethyl)amino]pyridin-3-yl}sulfonyl)-2-(1H-pyrrolo[2,3-b]pyridin-5-yloxy)benzamide] | < 0.01 nM |
| CC1(C)CCC(CN2CCN(c3ccc(C(=O)NS(=O)(=O)c4ccc(NCC5CCC6(CC5)COC6)c([N+](=O)[O-])c4)c(Oc4cnc5[nH]ccc5c4)c3)CC2)=C(c2ccc(Cl)cc2)C1 [Example 365, 4-(4-{[2-(4-chlorophenyl)-4,4-dimethylcyclohex-1-en-1-yl]methyl}piperazin-1-yl)-N-({3-nitro-4-[(2-oxaspiro[3.5]non-7-ylmethyl)amino]phenyl}sulfonyl)-2-(1H-pyrrolo[2,3-b]pyridin-5-yloxy)benzamide] | < 0.01 nM |
| CC1(C)CCC(CN2CCN(c3ccc(C(=O)NS(=O)(=O)c4ccc(NCC5CCC(C)(C#N)CC5)c([N+](=O)[O-])c4)c(Oc4cnc5[nH]ccc5c4)c3)CC2)=C(c2ccc(Cl)cc2)C1 (stereo not drawn) [Example 366, 4-(4-{[2-(4-chlorophenyl)-4,4-dimethylcyclohex-1-en-1-yl]methyl}piperazin-1-yl)-N-[(4-{[(4-cyano-4-methylcyclohexyl)methyl]amino}-3-nitrophenyl)sulfonyl]-2-(1H-pyrrolo[2,3-b]pyridin-5-yloxy)benzamide] | 0.024 nM |
| CC1(C)CCC(CN2CCN(c3ccc(C(=O)NS(=O)(=O)c4cnc5c(c4)nnn5CC4CCOCC4)c(Oc4cnc5[nH]ccc5c4)c3)CC2)=C(c2ccc(Cl)cc2)C1 [Example 370, 4-(4-{[2-(4-chlorophenyl)-4,4-dimethylcyclohex-1-en-1-yl]methyl}piperazin-1-yl)-2-(1H-pyrrolo[2,3-b]pyridin-5-yloxy)-N-{[3-(tetrahydro-2H-pyran-4-ylmethyl)-3H-[1,2,3]triazolo[4,5-b]pyridin-6-yl]sulfonyl}benzamide] | 0.285 nM |
| COCC1CCC(CNc2ccc(S(=O)(=O)NC(=O)c3ccc(N4CCN(CC5=C(c6ccc(Cl)cc6)CC(C)(C)CC5)CC4)cc3Oc3cnc4[nH]ccc4c3)cc2[N+](=O)[O-])CC1 (stereo not drawn) [Example 374, 4-(4-{[2-(4-chlorophenyl)-4,4-dimethylcyclohex-1-en-1-yl]methyl}piperazin-1-yl)-N-{[4-({[4-(methoxymethyl)cyclohexyl]methyl}amino)-3-nitrophenyl]sulfonyl}-2-(1H-pyrrolo[2,3-b]pyridin-5-yloxy)benzamide] | < 0.001 nM |
| CC1(C)CCC(CN2CCN(c3ccc(C(=O)NS(=O)(=O)c4cnc(OCC5CCN(c6nccs6)CC5)c(Cl)c4)c(Oc4cnc5[nH]ccc5c4)c3)CC2)=C(c2ccc(Cl)cc2)C1 [Example 375, 4-(4-{[2-(4-chlorophenyl)-4,4-dimethylcyclohex-1-en-1-yl]methyl}piperazin-1-yl)-N-[(5-chloro-6-{[1-(1,3-thiazol-2-yl)piperidin-4-yl]methoxy}pyridin-3-yl)sulfonyl]-2-(1H-pyrrolo[2,3-b]pyridin-5-yloxy)benzamide] | 0.11 nM |
| COC1(C)CCC(c2ccc(Cl)cc2)=C(CN2CCN(c3ccc(C(=O)NS(=O)(=O)c4ccc(NCC5CCOCC5)c([N+](=O)[O-])c4)c(Oc4cnc5[nH]ccc5c4)c3)CC2)C1 (stereo not drawn) [Example 378, 4-(4-{[2-(4-chlorophenyl)-5-methoxy-5-methylcyclohex-1-en-1-yl]methyl}piperazin-1-yl)-N-({3-nitro-4-[(tetrahydro-2H-pyran-4-ylmethyl)amino]phenyl}sulfonyl)-2-(1H-pyrrolo[2,3-b]pyridin-5-yloxy)benzamide] | < 0.001 nM |

same assay, conditions: TR-FRET Bcl-2 Binding Ki

| Compound | Ki |
| --- | --- |
| CC1(C)CCC(CN2CCN(c3ccc(C(=O)NS(=O)(=O)c4ccc(NC(=O)N5CCOCC5)c([N+](=O)[O-])c4)c(Oc4cnc5[nH]ccc5c4)c3)CC2)=C(c2ccc(Cl)cc2)C1 [Example 373, N-(4-{[4-(4-{[2-(4-chlorophenyl)-4,4-dimethylcyclohex-1-en-1-yl]methyl}piperazin-1-yl)-2-(1H-pyrrolo[2,3-b]pyridin-5-yloxy)benzoyl]sulfamoyl}-2-nitrophenyl)morpholine-4-carboxamide] | < 0.001 nM |
